Results taken from US9421193B2, “Benzothiazole derivatives and a use thereof for the treatment of cancer” (Korea Institute of Radiological & Medical Sciences, priority 2014, dated 2016).

Legend:
[1] = test system: non-small cell lung cancer cell strain H460; experiment: Apoptosis ratio, Annexin V flow cytometry; assay type: cell-based, human; conditions: about 40 hours, 50 μM PB01, 50 μM PB11, 150 μM PB12, FIGS. 9A and 9B
Protocol: About 5×10^5 cells per well of each of the non-small cell lung cancer cell strains A549 and H460 were portioned into a 6-well plate and then incubated with the compounds PB01 or PB11 for about 40 hours in the same manner as described above. A cell layer was washed with PBS and then treated with trypsin-EDTA solution to isolate cells. The isolated cells were collected and stained with an Annexin V Flous Staining kit (available Roche Applied Science, Penzberg, Germany) in a dark condition for about 30 minutes. The stained cells were analyzed by flow cytometry using a FACScan™ (available from Becton Dicknson) to count the number of dead cells and then calculate an apoptosis ratio. The same experiment was performed with 50 μM of PB01, 50 μM of PB11, or 150 μM of PB12 in the same manner as described above. The graphs of cell viability with respect to compound concentration and incubation time obtained based on the experimental results are shown in FIGS. 9A and 9B.

[2] = test system: non-small cell lung cancer cell strain H460; experiment: Trypan blue live cell count (cell viability); assay type: cell-based, human; conditions: FIGS. 3A and 3B, PB12 at 150 μM
Protocol: Whether the cancer cell growth inhibitory effects of the compounds PB01 and PB11 on the non-small cell lung cancer cell strains is associated with apoptosis was investigated. The cell growth inhibitory effects were evaluated by a trypan blue assay, and cell shapes were observed using an inverted microscope. The shapes of cell nuclei were observed via Hoeschst 33342 staining. Degrees of inducing apoptosis were quantized by flow cytometry (fluorescent activated cell sorting (FACS)).
After about 5×10^3 cells per well of each of the human non-small cell lung cancer cell strains A549 and H460 were portioned into a 96-well plate, about 10 uM to about 50 uM of the compounds PB01 or PB11 in 200 ul of culture solution were added into the wells, and incubated for about 8 to 72 hours. Cells were collected from the incubation product, and centrifuged at about 2,000 rpm for 5 minutes. After removing a supernatant, the remaining cells were mixed with 1 mL of phosphate-buffered saline (PBS) to obtain a cell suspension, which was then mixed with an equal amount of 0.5% trypan blue (Gibco BRL), followed by treatment for about 1 minute. The number of live cells was counted using a phase-contrast) microscope. The live cell counting was repeated three times, and an average live cell count and a standard error were calculated using a Microsoft Excel program. Cell viability graphs with respect to compound concentration and incubation time were obtained. The same experiment was performed with 50 μM of the compound PB01, PB11 50 μM of the compound PB11, or 150 μM of the compound PB12 150 μM, and cell viability graphs with respect to compound concentration and incubation time were obtained.

Cc1noc(C)c1CSc1nc2ccc(NC(=O)C3CCC(O)CC3)cc2s1 (centres unmarked) [PB12]
apoptosis induction (Annexin V) [1]: kill the non-small cell lung cancer cells by inducing apoptosis
cancer cell apoptosis effect with respect to concentration and incubation time [2]: improved cancer cell apoptosis effects with increases in concentration and incubation time
